Results taken from patent publication US20220040280A1, “INHIBITORS AND USES THEREOF” (UNIVERSITY OF CANBERRA, priority 2016, published 2022).
Entries after “also recorded” stand apart in the source; their conditions may differ. Residues, ends and D or L forms follow the SMILES beside them. *: point of attachment. Myristoyl = CCCCCCCCCCCCCC(=O)*

What was measured:
[1] = system: MDA-MB-231 breast cancer cells; experiment: Flow cytometry of stimulated MDA-MB-231 cells (PD-L1, CD44, CD24); format: cell-based, human; settings: IFNγ 10 μg/mL, PMA 24 ng/mL, 24 or 48 hours
[2] = system: MDA-MB-231 breast cancer cells; experiment: as above; format: cell-based, human; settings: for Median Fluorescence Intensity (MFI) of PD-L1, change on stimulation: MDA-MB-231 cells
Method: MCF7 and MDA-MB-231 cells were obtained from the American Type Culture Collection (Manassas, Va.). Cells were cultured in DMEM (Invitrogen, Life Technologies, Carlsbad, Calif.) supplemented with 10% FBS, 2 mM L-glutamine, and 1% penicillin-streptomycin-neomycin. MCF7 cells were stimulated with 1.32 ng/ml phorbol 12-myristate 13-acetate (PMA) (Sigma-Aldrich, St Louis, Mo.) or 5 ng/ml recombinant TGF-β1 (R&D Systems, Minneapolis, Minn.) for 60 h. For the co-culture assay MDA-MB-231 cells were stimulated with Jurkat T-cells at defined ratios.
(§1) Isolated PBMCs and CTCs were stained with CD45−APC, pan-cytokeratin (CK)-FITC, EpCAM-Percp-Cy5.5 and PD-L1-BV421 antibodies. Co-cultured MDA-MB-231 cells were stained with CD44, CD24 and PD-L1. Flow cytometric analysis was performed on single cell suspensions for using the BD LSR II Flow Cytometer.

[3] = molecular target: T1, LSD1 phosphorylated at serine 111 (LSD1s111p) (Homo sapiens, UniProt O60341); experiment: Confocal microscopy of LSD1s111p in MCF7 cells treated with peptide inhibitors; format: cell-based; settings: stimulated and non-stimulated MCF7 cells, relative to control, FIG. 4
T1 construct: endogenous in cells; host or cells: MCF7 (non-stimulated or PMA-stimulated) and MDA-MB-231 breast cancer cells
Method: (§2) Cells were probed with either rabbit antibodies to LSD1s111p (Merck ABE1462), EGFR (AB2430), MET (ab51067), PD-L1 (sc-50298), goat antibodies to PD-L1 (sc-19091), SC-14033), (sc-19096), mouse antibodies to Cytokeratin (Miltenyi 130-090-866), CSV (Abnova H00007431-M08), vimentin (SC-6260) followed by visualisation with secondary anti mouse Alexa-Fluor 568 (A10037), secondary anti rabbit Alexa-Fluor 488 (A21206) or secondary anti goat Alexa-Fluor 633 (A21082).
(§3) MDA-MB-231 or MCF7 cells were treated with one of L1, L2 or L3 and a control. Cells were then fixed with 3.7% formaldehyde and permeabilized with 2% Triton-X-100, then probed with a primary mouse antibody against LSD1 or a primary rabbit antibody against PD-L1, EGFR or MET, followed by visualization with a secondary goat antibody to mouse or rabbit immunoglobulins conjugated to Alexa-Fluor 488. Confocal laser scanning microscopy was used to measure the Fn/c (ratio of nuclear to cytoplasmic fluorescent intensity) ratio of LSD1 with Fiji-imageJ or the total nuclear fluorescence of PD-L1, EGFR or MET. Values are plotted with significant differences indicated using the Mann-Whitney T-test, with at least 20 cells counted per sample. Representative images for each treatment are shown.

EGFR = experiment: Confocal microscopy of EGFR in MDA-MB-231 cells treated with peptide inhibitors; format: cell-based, human; settings: in comparison to control, FIG. 23
Method: as §3

MCF7 cells = settings: PMA stimulated MCF7 cells, 50 μM and 100 μM tested, FIG. 20
Method: (§4) 5×10^4 MCF7 or MDA-MB-231 cells were seeded with 1 mL of complete DMEM in 12 well plates overnight. […] Samples were harvested by trypsinisation followed by washing with DPBS containing 2% HI-FBS. FACS staining were performed using anti-human CD44-APC, anti-human CD24-PE, Hoechst, and anti-human EpCAM antibody cocktails. Data was collected from a BD FACSLSR-II flow cytometer. Treestar FlowJo was used for data analysis.

PD-L1 [4] = experiment: Confocal microscopy of PD-L1 in MDA-MB-231 cells treated with peptide inhibitors; format: cell-based, human; settings: for cytoplasmic/surface expression of PD-L1 (TCFI) / expression of nuclear PD-L1 (TNFI) / PD-L1 nuclear expression: MDA-MB-231 cells; for cytoplasmic/surface expression of PD-L1 (TCFI) / expression of nuclear PD-L1 (TNFI): FIG. 6; for PD-L1 nuclear expression: in comparison to the control, FIG. 22 (50 μM and 100 μM); for Fn/c ratio (nuclear bias) of PD-L1: peptide treated MDA-MB-231 cells
Method: as §2, §3

LSD1 = molecular target: T2, LSD1 (Homo sapiens, UniProt O60341); experiment: LSD1 nuclear translocation in MDA-MB-231 cells, confocal microscopy; format: cell-based; settings: FIG. 19 and FIG. 31
T2 construct: endogenous in cells; host or cells: MCF7 (non-stimulated or PMA-stimulated) and MDA-MB-231 breast cancer cells
Method: as §3
Confocal laser scanning microscopy was performed on MDA-MB-231 cells treated with a LSD1 peptide inhibitor, L1, L2 or L3, or vehicle alone. Cells were fixed with 3.7% formaldehyde and permeabilized with 2% Triton-X-100, and then probed with a primary mouse antibody to LSD1, followed by the corresponding secondary antibody conjugated to Alexa-Fluor 488. Confocal laser scanning microscopy was used to determine the Fn/c ratio of LSD1 with image-J. Values are plotted with significant differences indicated. Data shown represent the mean±SE for at least 20 individual cells.

MDA-MB-231 cells = settings: 100 μM, FIG. 21
Method: as §4

[5] = molecular target: T1, LSD1 phosphorylated at serine 111 (LSD1s111p); experiment: Confocal microscopy of LSD1s111p in MDA-MB-231 cells treated with peptide inhibitors; format: cell-based; settings: relative to control, FIG. 4
Method: as §2, §3

PD-L1 [6] = experiment: Confocal microscopy of PD-L1 in MCF7 cells treated with peptide inhibitors; format: cell-based, human; settings: for abrogation of nuclear PD-L1 expression: epithelial non-stimulated MCF7 cells, compared with stimulated cells; for Fn/c ratio (nuclear bias) of PD-L1: peptide treated MCF7 cells; for cytoplasmic/surface expression of PD-L1 (TCFI): stimulated MCF7 cells; for cytoplasmic/surface expression of PD-L1 (TCFI) / expression of nuclear PD-L1 (TNFI): FIG. 5; for expression of nuclear PD-L1 (TNFI): stimulated, mesenchymal MCF7 cells
Method: as §2, §3

MET = experiment: Confocal microscopy of MET in MDA-MB-231 cells treated with peptide inhibitors; format: cell-based, human; settings: in comparison to control, FIG. 24
Method: as §3

PD-L1 [7] = experiment: FACS of PD-L1 in CD45-CK+ circulating tumor cells from patient liquid biopsies; format: cell-based, human; settings: CD45-CK+ CTCs
Method: as §1

[8] = stimulated MDA-MB-231, 24 hours
[9] = stimulated MDA-MB-231, 48 hours

Molecule | frequency (%) of PD-L1+ cells, change on stimulation [1] | Median Fluorescence Intensity (MFI) of PD-L1, change on stimulation [2] | CD44^hi CD24^lo (Frequency of parent, %) [2, 8] | CD44^hi CD24^lo, PD-L1+ (Frequency of parent, %) [2, 8] | Mean Fluorescence Intensity of Comp Pacific Blue-A PD-L1, CD44^hi CD24^lo, PD-L1+ subset [2, 8] | Mean Fluorescence Intensity of Comp Pacific Blue-A PD-L1, PD-L1+ subset [2, 8] | PD-L1+ (Frequency of parent, %) [2, 8] | CD44^hi CD24^lo (Frequency of parent, %) [2, 9] | CD44^hi CD24^lo, PD-L1+ (Frequency of parent, %) [2, 9] | Mean Fluorescence Intensity of Comp Pacific Blue-A PD-L1, CD44^hi CD24^lo, PD-L1+ subset [2, 9] | Mean Fluorescence Intensity of Comp Pacific Blue-A PD-L1, PD-L1+ subset [2, 9] | PD-L1+ (Frequency of parent, %) [2, 9] | nuclear expression of LSD1s111p (TNFI) [3] | EGFR nuclear expression (TNFI) (EGFR) | cytoplasmic/surface expression of PD-L1 (TCFI) (PD-L1 [4]) | expression of nuclear PD-L1 (TNFI) (PD-L1 [4]) | PD-L1 nuclear expression (PD-L1 [4]) | Fn/c ratio (nuclear bias) of PD-L1 (PD-L1 [4]) | nuclear translocation of LSD1 (Fn/c) (LSD1) | cancer stem cell formation (MDA-MB-231 cells) | also measured
CCCCCCCCCCCCCC(=O)O[C@@H]1[C@@H](C)[C@@]2(O)[C@@H](C=C(CO)C[C@]3(O)C(=O)C(C)=C[C@@H]23)[C@@H]2C(C)(C)[C@]12OC(C)=O [PMA, phorbol 12-myristate 13-acetate, reference compound] | not altered | decreased | 98.4% | 98.6% | 3145 | 3126 | 98.5% | 98.3% | 99.2% | 4016 | 3983 | 99.1% |  |  |  |  |  |  |  |  | 
CCCCCCCCCCCCCC(=O)N[C@@H](CCCNC(=N)N)C(=O)N[C@@H](CCCNC(=N)N)C(=O)N[C@H](C(=O)N[C@@H](CO)C(=O)N[C@@H](CCCNC(=N)N)C(=O)N[C@@H](CCCNC(=N)N)C(=O)N[C@@H](CCCCN)C(=O)N[C@@H](CCCNC(=N)N)C(=O)N[C@@H](C)C(=O)N[C@@H](CCCCN)C(=O)N[C@H](C(=O)O)C(C)C)[C@@H](C)O [Peptide L1, Myristoyl-RRTSRRKRAKV-OH] (Myristoyl-RRTSRRKRAKV-OH) |  |  |  |  |  |  |  |  |  |  |  |  | significantly abrogated | significant abrogation | significantly inhibited | significantly abrogated | abrogated | strongly nuclear | inhibited; also recorded: clearly abrogated | significant reduction | cancer stem cell formation (MCF7 cells): inhibited; nuclear expression of LSD1s111p (TNFI) [5]: significantly abrogated; abrogation of nuclear PD-L1 expression (PD-L1 [6]): lessened; Fn/c ratio (nuclear bias) of PD-L1 (PD-L1 [6]): strongly nuclear; cytoplasmic/surface expression of PD-L1 (TCFI) (PD-L1 [6]): significantly inhibited; expression of nuclear PD-L1 (TNFI) (PD-L1 [6]): significantly abrogated; MET nuclear expression (TNFI) (MET): significant abrogation
CCCCCCCCCCCCCC(=O)N[C@@H](CCCNC(=N)N)C(=O)N[C@@H](Cc1c[nH]c2ccccc12)C(=O)N[C@@H](CCCNC(=N)N)C(=O)N[C@@H](CCCNC(=N)N)C(=O)N[C@H](C(=O)N[C@@H](C)C(=O)N[C@@H](CCCNC(=N)N)C(=O)N[C@@H](CCCNC(=N)N)C(=O)N[C@@H](CCCCN)C(=O)N[C@@H](CCCNC(=N)N)C(=O)N[C@@H](C)C(=O)N[C@@H](CCCCN)C(=O)N[C@H](C(=O)O)C(C)C)[C@@H](C)O [Peptide L3, Myristoyl-RWRRTARRKRAKV-OH] (Myristoyl-RWRRTARRKRAKV-OH) |  |  |  |  |  |  |  |  |  |  |  |  | significantly abrogated | reduction | significantly inhibited | significantly abrogated | abrogated | strongly nuclear | inhibited; also recorded: clearly abrogated | significant reduction | nuclear expression of LSD1s111p (TNFI) [5]: significantly abrogated; abrogation of nuclear PD-L1 expression (PD-L1 [6]): lessened; Fn/c ratio (nuclear bias) of PD-L1 (PD-L1 [6]): strongly nuclear; cytoplasmic/surface expression of PD-L1 (TCFI) (PD-L1 [6]): significantly inhibited; expression of nuclear PD-L1 (TNFI) (PD-L1 [6]): significantly abrogated; MET nuclear expression (TNFI) (MET): significant abrogation
CN(C)C(=O)c1cc2cnc(Nc3ccc(N4CCNCC4)cn3)nc2n1C1CCCC1 [Ribociclib] |  |  |  |  |  |  |  |  |  |  |  |  |  |  |  |  |  |  |  |  | PD-L1 nuclear (nPD-L1) expression (PD-L1 [7]; Patient A, FIG. 18A): greatest inhibition; PD-L1 nuclear expression (PD-L1 [7]; Patient B, FIG. 18B): inhibited; PD-L1 surface/cytoplasmic expression (PD-L1 [7]; Patient B, FIG. 18B): inhibited
IFNγ: interferon gamma used as stimulus (10 μg/mL) (protein, UniProt P01579 24-161, looked up) Interferon gamma: QDPYVKEAENLKKYFNAGHSDVADNGTLFLGILKNWKEESDRKIMQSQIVSFYFKLFKNFKDDQSIQKSVETIKEDMNVKFFNSNKKKRDDFEKLTNYSVTDLNVQRKAIHELIQVMAELSPAAKTGKRKRSQMLFRG | not altered | increases | 77.7% | 99.7% | 6173 | 6015 | 99.7% | 98.9% | 99.7% | 6173 | 6133 | 99.7% |  |  |  |  |  |  |  |  | 
